Experimental data from ChEMBL document CHEMBL1201861, “Genomics of Drug Sensitity in Cancer screening data, Wellcome Trust Sanger Institute”.
pIC50: −log10 of the molar value.

How the values were obtained:
[1] = system: MCF7; assay: cells; type: functional, cell-based; settings: Homo sapiens;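 note: growth inhibition of human MCF7 cells, read out with a cell viability assay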
Description: SANGER: Inhibition of human MCF7 cell growth in a cell viability assay.

[2] = system: NALM-6; assay: cells; type: functional, cell-based; settings: Homo sapiens;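 note: growth inhibition of NALM-6 cells, read out with a cell viability assay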
Description: SANGER: Inhibition of human NALM-6 cell growth in a cell viability assay.

[3] = system: NCI-H650; assay: cells; type: functional, cell-based; settings: Homo sapiens;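 note: growth inhibition of NCI-H650 cells, read out by a viability assay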
Description: SANGER: Inhibition of human NCI-H650 cell growth in a cell viability assay.

[4] = system: HT-1080; assay: cells; type: functional, cell-based; settings: Homo sapiens
Description: SANGER: Inhibition of human HT-1080 cell growth in a cell viability assay.

[5] = system: CHP-126; assay: cells; type: functional, cell-based; settings: Homo sapiens
Description: SANGER: Inhibition of human CHP-126 cell growth in a cell viability assay.

[6] = system: UACC-62; assay: cells; type: functional, cell-based; settings: Homo sapiens;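 note: growth inhibition of human UACC-62 cells, read out by a cell viability assay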
Description: SANGER: Inhibition of human UACC-62 cell growth in a cell viability assay.

[7] = system: HuP-T3; assay: cells; type: functional, cell-based; settings: Homo sapiens;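 note: HuP-T3 cell growth inhibition, read out with a cell viability assay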
Description: SANGER: Inhibition of human HuP-T3 cell growth in a cell viability assay.

[8] = system: NCI-H460; assay: cells; type: functional, cell-based; settings: Homo sapiens;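 note: cell viability assay scoring growth inhibition of human NCI-H460 cells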
Description: SANGER: Inhibition of human NCI-H460 cell growth in a cell viability assay.

[9] = system: TALL-1; assay: cells; type: functional, cell-based; settings: Homo sapiens;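 note: growth inhibition of cultured human TALL-1 cells, read out by a cell viability assay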
Description: SANGER: Inhibition of human TALL-1 cell growth in a cell viability assay.

[10] = system: MKN-1; assay: cells; type: functional, cell-based; settings: Homo sapiens;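 note: growth inhibition of human MKN1 cells, read out by a cell viability measurement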
Description: SANGER: Inhibition of human MKN1 cell growth in a cell viability assay.

[11] = system: ESS-1; assay: cells; type: functional, cell-based; settings: Homo sapiens;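 note: growth inhibition of human ESS-1 cells, read out by a cell viability assay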
Description: SANGER: Inhibition of human ESS-1 cell growth in a cell viability assay.

[12] = system: GP5d; assay: cells; type: functional, cell-based; settings: Homo sapiens;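 note: growth inhibition of human GP5d cells, read out with a cell viability assay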
Description: SANGER: Inhibition of human GP5d cell growth in a cell viability assay.

[13] = system: NCI-H1437; assay: cells; type: functional, cell-based; settings: Homo sapiens;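 note: growth inhibition of human NCI-H1437 cells, read out by a cell viability assay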
Description: SANGER: Inhibition of human NCI-H1437 cell growth in a cell viability assay.

[14] = system: MeWo; assay: cells; type: functional, cell-based; settings: Homo sapiens;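 note: growth inhibition of MeWo cells, determined by a cell viability readout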
Description: SANGER: Inhibition of human Mewo cell growth in a cell viability assay.

[15] = system: SW1417; assay: cells; type: functional, cell-based; settings: Homo sapiens;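 note: growth inhibition of human SW1417 cells, read out with a cell viability assay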
Description: SANGER: Inhibition of human SW1417 cell growth in a cell viability assay.

[16] = system: SK-LU-1; assay: cells; type: functional, cell-based; settings: Homo sapiens;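 note: cell viability assay measuring growth inhibition of human SK-LU-1 cells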
Description: SANGER: Inhibition of human SK-LU-1 cell growth in a cell viability assay.

[17] = system: ACHN; assay: cells; type: functional, cell-based; settings: Homo sapiens;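 note: cell viability read-out used to gauge how strongly growth of human ACHN cells is suppressed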
Description: SANGER: Inhibition of human ACHN cell growth in a cell viability assay.

[18] = system: VM-CUB-1; assay: cells; type: functional, cell-based; settings: Homo sapiens;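 note: cell viability assay measuring growth inhibition of the human VM-CUB-1 cell line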
Description: SANGER: Inhibition of human VM-CUB-1 cell growth in a cell viability assay.

[19] = system: MRK-nu-1; assay: cells; type: functional, cell-based; settings: Homo sapiens;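 note: cell viability assay measuring growth suppression of human MRK-nu-1 cells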
Description: SANGER: Inhibition of human MRK-nu-1 cell growth in a cell viability assay.

[20] = system: 647-V; assay: cells; type: functional, cell-based; settings: Homo sapiens;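 note: growth inhibition of 647-V cells, read out with a cell viability assay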
Description: SANGER: Inhibition of human 647-V cell growth in a cell viability assay.

[21] = system: HCT-116; assay: cells; type: functional, cell-based; settings: Homo sapiens
Description: SANGER: Inhibition of human HCT-116 cell growth in a cell viability assay.

[22] = system: Daudi; assay: cells; type: functional, cell-based; settings: Homo sapiens;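 note: growth inhibition of Daudi cells, read out by a viability assay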
Description: SANGER: Inhibition of human Daudi cell growth in a cell viability assay.

[23] = system: HCC38; assay: cells; type: functional, cell-based; settings: Homo sapiens;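 note: cell viability assay on the human HCC38 cell line, with IC50 marking the concentration that inhibits cell growth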
Description: SANGER: Inhibition of human HCC38 cell growth in a cell viability assay.

[24] = system: GCT; assay: cells; type: functional, cell-based; settings: Homo sapiens;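 note: GCT cell line proliferation inhibition, read out with a cell viability assay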
Description: SANGER: Inhibition of human GCT cell growth in a cell viability assay.

[25] = system: HOP-92; assay: cells; type: functional, cell-based; settings: Homo sapiens;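 note: cell viability readout, with IC50 reflecting inhibition of HOP-92 cell growth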
Description: SANGER: Inhibition of human HOP-92 cell growth in a cell viability assay.

[26] = system: T-24; assay: cells; type: functional, cell-based; settings: Homo sapiens;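 note: growth inhibition of T-24 cells, read out with a cell viability assay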
Description: SANGER: Inhibition of human T-24 cell growth in a cell viability assay.

[27] = system: MKN-7; assay: cells; type: functional, cell-based; settings: Homo sapiens;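 note: growth inhibition of MKN-7 cells, read out with a cell viability assay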
Description: SANGER: Inhibition of human MKN7 cell growth in a cell viability assay.

[28] = system: HT55; assay: cells; type: functional, cell-based; settings: Homo sapiens;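 note: cell viability readout measuring growth inhibition of human HT55 cells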
Description: SANGER: Inhibition of human HT55 cell growth in a cell viability assay.

[29] = system: HCC1937; assay: cells; type: functional, cell-based; settings: Homo sapiens;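 note: growth inhibition measured with a cell viability read-out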
Description: SANGER: Inhibition of human HCC1937 cell growth in a cell viability assay.

[30] = system: HOS; assay: cells; type: functional, cell-based; settings: Homo sapiens;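 note: growth inhibition of human HOS cells, read out with a cell viability assay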
Description: SANGER: Inhibition of human HOS cell growth in a cell viability assay.

[31] = system: NCI-H661; assay: cells; type: functional, cell-based; settings: Homo sapiens;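 note: cell viability assay read-out, IC50 being the concentration that inhibits growth of the cells by half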
Description: SANGER: Inhibition of human NCI-H661 cell growth in a cell viability assay.

[32] = system: KYSE-510; assay: cells; type: functional, cell-based; settings: Homo sapiens;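 note: cell viability readout used to measure how strongly growth of the cell line is suppressed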
Description: SANGER: Inhibition of human KYSE-510 cell growth in a cell viability assay.

[33] = system: MFE-280; assay: cells; type: functional, cell-based; settings: Homo sapiens;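 note: growth inhibition of MFE-280 cells, determined with a cell viability readout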
Description: SANGER: Inhibition of human MFE-280 cell growth in a cell viability assay.

[34] = system: IGR-1; assay: cells; type: functional, cell-based; settings: Homo sapiens;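 note: growth inhibition of human IGR-1 cells, read out with a cell viability assay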
Description: SANGER: Inhibition of human IGR-1 cell growth in a cell viability assay.

[35] = system: NCI-H28; assay: cells; type: functional, cell-based; settings: Homo sapiens;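 note: growth inhibition of human NCI-H28 cells, read out as cell viability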
Description: SANGER: Inhibition of human NCI-H28 cell growth in a cell viability assay.

[36] = system: NCI-H2228; assay: cells; type: functional, cell-based; settings: Homo sapiens;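 note: growth inhibition of human NCI-H2228 cells, read out by a cell viability assay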
Description: SANGER: Inhibition of human NCI-H2228 cell growth in a cell viability assay.

[37] = system: EB-3; assay: cells; type: functional, cell-based; settings: Homo sapiens;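 note: human EB-3 cells, growth inhibition read out via a cell viability assay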
Description: SANGER: Inhibition of human EB-3 cell growth in a cell viability assay.

[38] = system: CP50-MEL-B; assay: cells; type: functional, cell-based; settings: Homo sapiens;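 note: growth inhibition of the human cell line, measured with a cell viability read-out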
Description: SANGER: Inhibition of human CP50-MEL-B cell growth in a cell viability assay.

[39] = system: COLO-678; assay: cells; type: functional, cell-based; settings: Homo sapiens
Description: SANGER: Inhibition of human COLO-678 cell growth in a cell viability assay.

[40] = system: OAW-28; assay: cells; type: functional, cell-based; settings: Homo sapiens;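 note: growth inhibition of OAW-28 cells, read out with a cell viability assay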
Description: SANGER: Inhibition of human OAW-28 cell growth in a cell viability assay.

[41] = system: 8305C; assay: cells; type: functional, cell-based; settings: Homo sapiens
Description: SANGER: Inhibition of human 8305C cell growth in a cell viability assay.

[42] = system: BHY; assay: cells; type: functional, cell-based; settings: Homo sapiens;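 note: cell growth inhibition read out by a viability assay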
Description: SANGER: Inhibition of human BHY cell growth in a cell viability assay.

[43] = system: SK-MEL-28; assay: cells; type: functional, cell-based; settings: Homo sapiens;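 note: growth inhibition of human SK-MEL-28 cells, read out with a cell viability assay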
Description: SANGER: Inhibition of human SK-MEL-28 cell growth in a cell viability assay.

[44] = system: SU-DHL-1; assay: SANGER: Inhibition of human SU-DHL-1 cell growth in a cell viability assay.; type: functional, cell-based
[45] = system: NCI-H2405; assay: cells; type: functional, cell-based; settings: Homo sapiens;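 note: growth inhibition of the human cell line, read out with a cell viability assay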
Description: SANGER: Inhibition of human NCI-H2405 cell growth in a cell viability assay.

[46] = system: D-247MG; assay: cells; type: functional, cell-based; settings: Homo sapiens
Description: SANGER: Inhibition of human D-247MG cell growth in a cell viability assay.

[47] = system: NCI-H1755; assay: cells; type: functional, cell-based; settings: Homo sapiens;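 note: cell viability readout used to measure growth inhibition of NCI-H1755 cells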
Description: SANGER: Inhibition of human NCI-H1755 cell growth in a cell viability assay.

[48] = system: COLO-741; assay: cells; type: functional, cell-based; settings: Homo sapiens
Description: SANGER: Inhibition of human COLO-741 cell growth in a cell viability assay.

[49] = system: UACC-893; assay: cells; type: functional, cell-based; settings: Homo sapiens
Description: SANGER: Inhibition of human UACC-893 cell growth in a cell viability assay.

[50] = system: HuCCT-1; assay: cells; type: functional, cell-based, HuCCT1; settings: Homo sapiens;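 note: growth inhibition of HuCCT-1 cells, read out by a cell viability assay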
Description: SANGER: Inhibition of human HuCCT1 cell growth in a cell viability assay.

[51] = system: DoTc2-4510; assay: cells; type: functional, cell-based; settings: Homo sapiens
[52] = system: TUR; assay: cells; type: functional, cell-based; settings: Homo sapiens;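 note: growth inhibition of human TUR cells, read out with a cell viability assay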
Description: SANGER: Inhibition of human TUR cell growth in a cell viability assay.

[53] = system: RVH-421; assay: cells; type: functional, cell-based; settings: Homo sapiens
Description: SANGER: Inhibition of human RVH-421 cell growth in a cell viability assay.

[54] = system: BPH-1; assay: cells; type: functional, cell-based; settings: Homo sapiens;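 note: cell viability assay measuring growth inhibition of human BPH-1 cells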
Description: SANGER: Inhibition of human BPH-1 cell growth in a cell viability assay.

[55] = system: BC-3; assay: cells; type: functional, cell-based; settings: Homo sapiens;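 note: cell viability assay measuring growth inhibition of human BC-3 cells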
Description: SANGER: Inhibition of human BC-3 cell growth in a cell viability assay.

[56] = system: DU-145; assay: cells; type: functional, cell-based; settings: Homo sapiens
Description: SANGER: Inhibition of human DU-145 cell growth in a cell viability assay.

[57] = system: LC-1F; assay: cells; type: functional, cell-based; settings: Homo sapiens;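 note: growth inhibition of human LC-1F cells, read out with a cell viability assay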
Description: SANGER: Inhibition of human LC-1F cell growth in a cell viability assay.

[58] = system: A204; assay: cells; type: functional, cell-based; settings: Homo sapiens;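 note: growth inhibition of human A204 cells, read out with a cell viability assay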
Description: SANGER: Inhibition of human A204 cell growth in a cell viability assay.

[59] = system: NCI-H596; assay: cells; type: functional, cell-based; settings: Homo sapiens;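 note: growth inhibition of NCI-H596 cells, read out with a cell viability assay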
Description: SANGER: Inhibition of human NCI-H596 cell growth in a cell viability assay.

[60] = system: SW1573; assay: cells; type: functional, cell-based; settings: Homo sapiens;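 note: growth inhibition of SW1573 cells, read out with a cell viability assay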
Description: SANGER: Inhibition of human SW1573 cell growth in a cell viability assay.

[61] = system: BC1 cell line; assay: SANGER: Inhibition of human BC-1 cell growth in a cell viability assay.; type: functional, cell-based
[62] = system: SF-295; assay: cells; type: functional, cell-based; settings: Homo sapiens;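 note: growth inhibition of SF-295 cells, read out with a cell viability assay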
Description: SANGER: Inhibition of human SF295 cell growth in a cell viability assay.

[63] = system: SW1990; assay: cells; type: functional, cell-based; settings: Homo sapiens
Description: SANGER: Inhibition of human SW1990 cell growth in a cell viability assay.

[64] = system: SAOS-2; assay: cells; type: functional, cell-based; settings: Homo sapiens
Description: SANGER: Inhibition of human Saos-2 cell growth in a cell viability assay.

SMILES: O=c1[nH]c2ccccc2n1C1CCN(Cc2ccc(-c3nc4cc5[nH]cnc5cc4nc3-c3ccccc3)cc2)CC1
- pIC50 [1]: < 5.59
- pIC50 [2]: 5.67
- pIC50 [3]: < 5.59
- pIC50 [4]: < 5.59
- pIC50 [5]: < 5.59
- pIC50 [6]: < 5.59
- pIC50 [7]: < 5.59
- pIC50 [8]: < 5.59
- pIC50 [9]: < 5.59
- pIC50 [10]: < 5.59
- pIC50 [11]: < 5.59
- pIC50 [12]: < 5.59
- pIC50 [13]: < 5.59
- pIC50 [14]: < 5.59
- pIC50 [15]: < 5.59
- pIC50 [16]: < 5.59
- pIC50 [17]: < 5.59
- pIC50 [18]: < 5.59
- pIC50 [19]: < 5.59
- pIC50 [20]: < 5.59
- pIC50 [21]: < 5.59
- pIC50 [22]: < 5.59
- pIC50 [23]: < 5.59
- pIC50 [24]: < 5.59
- pIC50 [25]: < 5.59
- pIC50 [26]: < 5.59
- pIC50 [27]: < 5.59
- pIC50 [28]: < 5.59
- pIC50 [29]: < 5.59
- pIC50 [30]: < 5.59
- pIC50 [31]: < 5.59
- pIC50 [32]: 5.66
- pIC50 [33]: < 5.59
- pIC50 [34]: < 5.59
- pIC50 [35]: < 5.59
- pIC50 [36]: 5.64
- pIC50 [37]: < 5.59
- pIC50 [38]: < 5.59
- pIC50 [39]: < 5.59
- pIC50 [40]: < 5.59
- pIC50 [41]: < 5.59
- pIC50 [42]: < 5.59
- pIC50 [43]: < 5.59
- pIC50 [44]: < 5.59
- pIC50 [45]: < 5.59
- pIC50 [46]: < 5.59
- pIC50 [47]: 5.98
- pIC50 [48]: < 5.59
- pIC50 [49]: < 5.59
- pIC50 [50]: < 5.59
- pIC50 [51]: < 5.59
- pIC50 [52]: < 5.59
- pIC50 [53]: < 5.59
- pIC50 [54]: < 5.59
- pIC50 [55]: < 5.59
- pIC50 [56]: < 5.59
- pIC50 [57]: < 5.59
- pIC50 [58]: < 5.59
- pIC50 [59]: < 5.59
- pIC50 [60]: < 5.59
- pIC50 [61]: < 5.59
- pIC50 [62]: < 5.59
- pIC50 [63]: < 5.59
- pIC50 [64]: < 5.59

SMILES: CC(C)=CC[C@@H](O)C1=CC(=O)c2c(O)ccc(O)c2C1=O [SHIKONIN]
- pIC50 [1]: 6.36
- pIC50 [2]: > 7.20
- pIC50 [3]: 6.18
- pIC50 [4]: 6.59
- pIC50 [5]: 6.16
- pIC50 [6]: 5.91
- pIC50 [7]: 6.08
- pIC50 [8]: 5.89
- pIC50 [9]: < 4.80
- pIC50 [10]: 6.63
- pIC50 [11]: < 4.80
- pIC50 [12]: 5.87
- pIC50 [13]: 5.81
- pIC50 [14]: 6.29
- pIC50 [15]: 6.08
- pIC50 [16]: 6.12
- pIC50 [17]: 6.83
- pIC50 [18]: 5.99
- pIC50 [19]: 6.99
- pIC50 [20]: 6.45
- pIC50 [21]: 6.41
- pIC50 [22]: 5.46
- pIC50 [23]: 6.10
- pIC50 [24]: 5.94
- pIC50 [25]: 5.70
- pIC50 [26]: 5.61
- pIC50 [27]: 5.66
- pIC50 [28]: 5.77
- pIC50 [29]: 5.78
- pIC50 [30]: 6.73
- pIC50 [31]: 5.27
- pIC50 [32]: 6.60
- pIC50 [33]: 5.31
- pIC50 [34]: 6.81
- pIC50 [35]: 6.00
- pIC50 [36]: 6.05
- pIC50 [37]: 5.94
- pIC50 [38]: 5.84
- pIC50 [39]: 5.79
- pIC50 [40]: 5.92
- pIC50 [41]: 6.52
- pIC50 [42]: 6.25
- pIC50 [43]: < 4.80
- pIC50 [44]: 6.30
- pIC50 [45]: 6.17
- pIC50 [46]: 5.78
- pIC50 [47]: < 4.80
- pIC50 [48]: 5.57
- pIC50 [49]: < 4.80
- pIC50 [50]: 6.32
- pIC50 [51]: 6.58
- pIC50 [52]: 6.33
- pIC50 [53]: 5.83
- pIC50 [54]: 5.90
- pIC50 [55]: 6.03
- pIC50 [56]: 6.71
- pIC50 [57]: < 4.80
- pIC50 [58]: 6.90
- pIC50 [59]: 6.09
- pIC50 [60]: 6.43
- pIC50 [61]: 5.57
- pIC50 [62]: 6.18
- pIC50 [63]: 5.79
- pIC50 [64]: 5.63
